Assay results taken from the supplement of paper PMC10307832.

Key:
Experiment in all cases: relative viability (nuclei count vs DMSO), 5 days (fraction); higher = more cells survive
Erlotinib + Vorinostat = compound: C#Cc1cccc(Nc2ncnc3cc(OCCOC)c(OCCOC)cc23)c1 [Erlotinib] + O=C(CCCCCCC(=O)Nc1ccccc1)NO [Vorinostat] (partner 1 µM)
Method in brief: (§1)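 Five library-drug doses in √10 steps were combined with a fixed anchor-drug dose, or a single drug was given alone, by pin tool to lung cancer cell lines in 1536-well plates the day after seeding. Nuclei were stained and counted after 5 days. Relative viability is the nuclei count in treated wells over that in vehicle wells, taken as the median of duplicate plates.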

Erlotinib + Olaparib = compound: C#Cc1cccc(Nc2ncnc3cc(OCCOC)c(OCCOC)cc23)c1 [Erlotinib] + O=C(c1cc(Cc2n[nH]c(=O)c3ccccc23)ccc1F)N1CCN(C(=O)C2CC2)CC1 [Olaparib] (partner 8 µM)
Method in brief: as §1

AT9283 + OSI-027 = compound: O=C(Nc1c[nH]nc1-c1nc2ccc(CN3CCOCC3)cc2[nH]1)NC1CC1 [AT9283] + COc1cccc2cc(-c3nc([C@H]4CC[C@H](C(=O)O)CC4)n4ncnc(N)c34)[nH]c12 [OSI-027] (partner 0.5 µM)
Method in brief: as §1

AT9283 + Decitabine = compound: O=C(Nc1c[nH]nc1-c1nc2ccc(CN3CCOCC3)cc2[nH]1)NC1CC1 [AT9283] + Nc1ncn([C@H]2C[C@H](O)[C@@H](CO)O2)c(=O)n1 [Decitabine] (partner 2 µM)
Method in brief: as §1

Erlotinib + Bortezomib = compound: C#Cc1cccc(Nc2ncnc3cc(OCCOC)c(OCCOC)cc23)c1 [Erlotinib] + CC(C)C[C@H](NC(=O)[C@H](Cc1ccccc1)NC(=O)c1cnccn1)B(O)O [Bortezomib] (partner 0.002 µM)
Method in brief: as §1

Cell Line	relative viability (Erlotinib + Vorinostat; first compound 0.02 µM)	relative viability (Erlotinib + Vorinostat; first compound 0.2 µM)	relative viability (Erlotinib + Vorinostat; first compound 0.6325 µM)	relative viability (Erlotinib + Vorinostat; first compound 2 µM)	relative viability (Erlotinib + Olaparib; first compound 0.02 µM)	relative viability (Erlotinib + Olaparib; first compound 0.2 µM)	relative viability (Erlotinib + Olaparib; first compound 0.6325 µM)	relative viability (Erlotinib + Olaparib; first compound 2 µM)	relative viability (AT9283 + OSI-027; first compound 0.003 µM)	relative viability (AT9283 + OSI-027; first compound 0.03 µM)	relative viability (AT9283 + OSI-027; first compound 0.09487 µM)	relative viability (AT9283 + OSI-027; first compound 0.3 µM)	relative viability (AT9283 + Decitabine; first compound 0.003 µM)	relative viability (AT9283 + Decitabine; first compound 0.03 µM)	relative viability (AT9283 + Decitabine; first compound 0.09487 µM)	relative viability (AT9283 + Decitabine; first compound 0.3 µM)	relative viability (Erlotinib + Bortezomib; first compound 0.02 µM)	relative viability (Erlotinib + Bortezomib; first compound 0.2 µM)	relative viability (Erlotinib + Bortezomib; first compound 0.6325 µM)	relative viability (Erlotinib + Bortezomib; first compound 2 µM)
NCI-H1650	0.556	0.559	0.488	0.411	0.821	0.685	0.61	0.644	0.838	0.575	0.357	0.227	0.565	0.499	0.387	0.238	0.204	0.204	0.176	0.178
NCI-H838	0.821	0.694	0.703	0.684	0.823	0.766	0.859	0.726	0.471	0.496	0.178	0.195	0.436	0.293	0.265	0.226	0.8	0.491	1.18	0.694
LXF-289	0.824	0.762	0.66	0.758	1.15	1.12	1.12	1.04	0.81	0.769	0.166	0.0735	0.354	0.423	0.214	0.139	0.964	0.999	0.921	0.857
SW 1573	0.652	0.605	0.824	0.405	0.502	0.494	0.558	0.364	0.534	0.352	0.146	0.134	0.394	0.175	0.171	0.143	1.08	1.02	0.934	0.879
201T	0.573		0.89	0.816	0.846	0.85	0.788	0.774	0.663	0.776	0.188	0.206	0.654	0.849	0.322	0.345	1.12	1.06	1.12	1.02
COR-L 105	0.776	0.564	0.425	0.377	0.638	0.603	0.47	0.294	0.606	0.292	0.284	0.231	0.67	0.394	0.317	0.328	0.828	0.342	0.407	0.335
LOU-NH91	0.803	0.713	0.785	0.703	0.733	0.619	0.725	0.624	0.697	0.698	0.599	0.388	0.83	0.77	0.522	0.509	0.525	0.497	0.484	0.458
PC-3 [JPC-3]		0.441	0.351	0.362	1.05	0.559	0.466	0.434	0.741	0.791	0.591	0.517	0.837	0.798	0.695	0.541	0.796	0.455	0.401	0.324
NCI-H1666		0.963	0.775	0.78	0.787	0.793	0.676	0.645	0.782	0.811	0.636	0.483	0.6	0.589	0.669	0.534	0.864	0.74	0.766	0.615
EPLC-272H	0.459	0.411	0.396	0.292	0.704	0.711	1.01	0.575	0.287	0.312	0.209	0.224	0.379	0.395	0.185	0.161		0.875	0.989	0.828
HCC-15	0.876		0.868	0.676	0.701	0.753	0.715	0.626	0.61	0.412	0.153	0.157	0.604	0.309	0.182	0.126	1.01	1.12	1.12	0.969
